This passage reports IC50 results from paper PMC10609608, “Design, Synthesis, In Vitro Biological Evaluation and In Silico Molecular Docking Study of Benzimidazole-Based Oxazole Analogues: A Promising Acetylcholinesterase and Butyrylcholinesterase Inhibitors” (Molecules, 2023).

Test [1] addresses acetylcholinesterase (AChE) (Homo sapiens, UniProt P22303). The test is described as follows: biochemical. Particulars: in vitro; donepezil as standard; read-out: AChE IC50 ± SEM. As for the experimental part: (§1) According to previously established protocols, in vitro AChE and BuChE inhibition profiles were evaluated with slight modifications.
Test [2] deals with butyrylcholinesterase (BuChE) (Homo sapiens, UniProt P06276). The test is described as follows: biochemical. Particulars: in vitro; donepezil as standard; read-out: BuChE IC50 ± SEM. As for the experimental part:
as §1

Chain of acetylcholinesterase (AChE) (P22303 32-614): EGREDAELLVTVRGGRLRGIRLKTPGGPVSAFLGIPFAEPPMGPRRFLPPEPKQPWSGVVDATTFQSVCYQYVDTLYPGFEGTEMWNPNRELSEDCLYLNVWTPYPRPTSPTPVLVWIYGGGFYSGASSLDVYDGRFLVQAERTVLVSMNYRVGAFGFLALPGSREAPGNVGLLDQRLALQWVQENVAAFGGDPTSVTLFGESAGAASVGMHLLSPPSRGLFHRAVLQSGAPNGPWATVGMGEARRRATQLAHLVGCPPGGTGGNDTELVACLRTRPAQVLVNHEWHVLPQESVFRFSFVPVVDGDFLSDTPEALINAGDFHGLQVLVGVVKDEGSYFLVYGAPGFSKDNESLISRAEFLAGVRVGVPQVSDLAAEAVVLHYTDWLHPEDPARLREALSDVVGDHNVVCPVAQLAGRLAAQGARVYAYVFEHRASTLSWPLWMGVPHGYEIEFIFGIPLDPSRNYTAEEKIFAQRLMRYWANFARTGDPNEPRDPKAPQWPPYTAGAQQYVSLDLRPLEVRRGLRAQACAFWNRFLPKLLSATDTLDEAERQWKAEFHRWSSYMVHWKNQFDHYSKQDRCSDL
Chain of butyrylcholinesterase (BuChE) (P06276 29-602): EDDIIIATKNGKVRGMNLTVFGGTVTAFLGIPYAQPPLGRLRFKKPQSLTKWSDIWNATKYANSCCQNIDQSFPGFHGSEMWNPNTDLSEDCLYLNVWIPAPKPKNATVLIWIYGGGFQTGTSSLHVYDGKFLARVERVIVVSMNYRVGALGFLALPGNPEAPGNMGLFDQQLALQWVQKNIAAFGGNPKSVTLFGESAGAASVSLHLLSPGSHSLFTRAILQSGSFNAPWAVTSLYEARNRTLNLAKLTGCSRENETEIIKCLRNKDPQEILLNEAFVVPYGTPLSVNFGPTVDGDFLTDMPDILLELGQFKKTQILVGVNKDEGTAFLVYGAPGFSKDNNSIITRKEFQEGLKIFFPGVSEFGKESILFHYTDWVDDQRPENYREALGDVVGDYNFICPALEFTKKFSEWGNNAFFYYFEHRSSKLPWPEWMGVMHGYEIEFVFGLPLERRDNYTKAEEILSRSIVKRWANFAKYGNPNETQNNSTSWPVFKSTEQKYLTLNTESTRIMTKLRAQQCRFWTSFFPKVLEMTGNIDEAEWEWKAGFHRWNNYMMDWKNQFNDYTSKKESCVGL

Turning to `Cc1ccc(/C(CSc2nc3ccccc3[nH]2)=N\Nc2nc(-c3ccccc3[N+](=O)[O-])co2)cc1` [Compound 2, (E)-2-(2-(2-((1H-Benzo[d]imidazol-2-yl)thio)-1-(p-tolyl)ethylidene)hydrazinyl)-4-(2-nitrophenyl)oxazole], the IC50 (usually the midpoint of a concentration-inhibition curve) in test [1] came to 1.6 ± 0.01 µM; in test [2] it was 1.9 ± 0.1 µM.

In the case of `CN(C)c1ccc(/C(CSc2nc3ccccc3[nH]2)=N\Nc2nc(-c3ccc(Br)cc3)co2)cc1` [Compound 7, (E)-4-(2-((1H-Benzo[d]imidazol-2-yl)thio)-1-(2-(4-(4-bromophenyl)oxazol-2-yl)hydrazono)ethyl)-N,N-dimethylaniline], the values for the IC50 in test [1] and in test [2] were 12.6 ± 0.3 µM and 16.3 ± 0.3 µM, respectively.

For `COc1cccc(-c2coc(N/N=C(/CSc3nc4ccccc4[nH]3)c3ccccc3)n2)c1` [Compound 15, (E)-2-(2-(2-((1H-Benzo[d]imidazol-2-yl)thio)-1-phenylethylidene)hydrazinyl)-4-(3-methoxyphenyl)oxazole], the figures for the half-maximal inhibitory concentration (IC50) in test [1] and in test [2] were 5.4 ± 0.1 µM and 7.2 ± 0.1 µM, respectively.

On to `Cc1ccc(/C(CSc2nc3ccccc3[nH]2)=N\Nc2nc(-c3ccc(Cl)c(Cl)c3)co2)cc1` [Compound 6, (E)-2-(2-(2-((1H-Benzo[d]imidazol-2-yl)thio)-1-(p-tolyl)ethylidene)hydrazinyl)-4-(3,4-dichlorophenyl)oxazole], for which the IC50 in test [1] amounted to 0.4 ± 0.05 µM; in test [2] it was 1.1 ± 0.05 µM.

For the compound `O=[N+]([O-])c1cccc(-c2coc(N/N=C(/CSc3nc4ccccc4[nH]3)c3ccccc3)n2)c1` [Compound 10, (E)-2-(2-(2-((1H-Benzo[d]imidazol-2-yl)thio)-1-phenylethylidene)hydrazinyl)-4-(3-nitrophenyl)oxazole], the IC50 came out at 1.4 ± 0.1 µM in test [1] and 2.1 ± 0.1 µM in test [2].

For the compound `Cc1ccc(/C(CSc2nc3ccccc3[nH]2)=N\Nc2nc(-c3ccccc3)co2)cc1` [Compound 13, (E)-2-(2-(2-((1H-Benzo[d]imidazol-2-yl)thio)-1-(p-tolyl)ethylidene)hydrazinyl)-4-phenyloxazole], the results for the half-inhibitory concentration (IC50) in test [1] and in test [2] were 8.1 ± 0.1 µM and 9.7 ± 0.1 µM, respectively.

With `COc1ccccc1-c1coc(N/N=C(/CSc2nc3ccccc3[nH]2)c2ccc(C)cc2)n1` [Compound 8, (E)-2-(2-(2-((1H-Benzo[d]imidazol-2-yl)thio)-1-(p-tolyl)ethylidene)hydrazinyl)-4-(2-methoxyphenyl)oxazole], the results for the IC50 in test [1] and in test [2] were 5.3 ± 0.2 µM and 7.2 ± 0.1 µM, respectively.

Consider `O=[N+]([O-])c1cccc(-c2coc(N/N=C(/CSc3nc4ccccc4[nH]3)c3ccc(Cl)cc3)n2)c1` [Compound 11, (E)-2-(2-(2-((1H-Benzo[d]imidazol-2-yl)thio)-1-(4-chlorophenyl)ethylidene)hydrazi-nyl)-4-(3-nitrophenyl)oxazole], for which the IC50 in test [1] is 0.7 ± 0.05 µM; in test [2], 1.2 ± 0.01 µM.

`COc1cccc(-c2coc(N/N=C(/CSc3nc4ccccc4[nH]3)c3ccc(Cl)cc3)n2)c1` [Compound 19, (E)-2-(2-(2-((1H-Benzo[d]imidazol-2-yl)thio)-1-(4-chlorophenyl)ethylidene)hydrazinyl)-4-(3-methoxyphenyl)oxazole]: the values for the half-maximal inhibitory concentration (IC50) in test [1] and in test [2] were 2.7 ± 0.2 µM and 3.7 ± 0.1 µM, respectively.

As for `O=[N+]([O-])c1ccccc1-c1coc(N/N=C(/CSc2nc3ccccc3[nH]2)c2ccccc2)n1` [Compound 17, (E)-2-(2-(2-((1H-Benzo[d]imidazol-2-yl)thio)-1-phenylethylidene)hydrazinyl)-4-(2-nitrophenyl)oxazole], the IC50 was found to be 2.5 ± 0.1 µM in test [1] and 3.5 ± 0.1 µM in test [2].

Turning to `Cc1ccc(/C(CSc2nc3ccccc3[nH]2)=N\Nc2nc(-c3cccc([N+](=O)[O-])c3)co2)cc1` [Compound 3, (E)-2-(2-(2-((1H-Benzo[d]imidazol-2-yl)thio)-1-(p-tolyl)ethylidene)hydrazinyl)-4-(3-nitrophenyl)oxazole], the IC50 stood at 4.4 ± 0.1 µM in test [1] and 5.8 ± 0.1 µM in test [2].

For the compound `Cc1ccc(/C(CSc2nc3ccccc3[nH]2)=N\Nc2nc(-c3ccc(Cl)cc3Cl)co2)cc1` [Compound 14, (E)-2-(2-(2-((1H-Benzo[d]imidazol-2-yl)thio)-1-(p-tolyl)ethylidene)hydrazinyl)-4-(2,4-dichlorophenyl)oxazole], the IC50 came to 0.2 ± 0.05 µM in test [1] and 0.3 ± 0.05 µM in test [2].

Regarding `O=[N+]([O-])c1ccccc1-c1coc(N/N=C(/CSc2nc3ccccc3[nH]2)c2ccc(Cl)cc2)n1` [Compound 18, (E)-2-(2-(2-((1H-Benzo[d]imidazol-2-yl)thio)-1-(4-chlorophenyl)ethylidene)hydrazinyl)-4-(2-nitrophenyl)oxazole], the IC50 was 0.8 ± 0.1 µM in test [1] and 1.7 ± 0.1 µM in test [2].

`COc1ccc(/C(CSc2nc3ccccc3[nH]2)=N\Nc2nc(-c3ccccc3[N+](=O)[O-])co2)cc1` [Compound 1, (E)-2-(2-(2-((1H-Benzo[d]imidazol-2-yl)thio)-1-(4-methoxyphenyl)ethylidene)hydrazinyl)-4-(2-nitrophenyl)oxazole]: the values for the IC50 in test [1] and in test [2] were 1.1 ± 0.1 µM and 1.8 ± 0.1 µM, respectively.

For `Cc1ccc(/C(CSc2nc3ccccc3[nH]2)=N\Nc2nc(-c3ccc(C)cc3)co2)cc1` [Compound 4, (E)-2-(2-(2-((1H-Benzo[d]imidazol-2-yl)thio)-1-(p-tolyl)ethylidene)hydrazinyl)-4-(p-tolyl)oxazole], the IC50 in test [1] stood at 6.5 ± 0.2 µM; in test [2] it was 8.3 ± 0.2 µM.

For `COc1cccc(-c2coc(N/N=C(/CSc3nc4ccccc4[nH]3)c3ccc(C)cc3)n2)c1` [Compound 5, (E)-2-(2-(2-((1H-Benzo[d]imidazol-2-yl)thio)-1-(p-tolyl)ethylidene)hydrazinyl)-4-(3-methoxyphenyl)oxazole], the figures for the IC50 in test [1] and in test [2] were 9.8 ± 0.2 µM and 11.5 ± 0.2 µM, respectively.

As to `Cc1ccc(-c2coc(N/N=C(/CSc3nc4ccccc4[nH]3)c3ccc(-c4ccccc4)cc3)n2)cc1` [Compound 16, (E)-2-(2-(2-((1H-Benzo[d]imidazol-2-yl)thio)-1-([1,1′-biphenyl]-4-yl)ethylidene) Hydrazinyl)-4-(p-tolyl)oxazole], the IC50 in test [1] stood at 6.1 ± 0.1 µM; in test [2] it was 9.3 ± 0.1 µM.
